From patent US11491155B2, “Salt of a pyrimido[6,1-A]isoquinolin-4-one compound” (VERONA PHARMA PLC, priority 2015, dated 2022)

Legend:
[1] = Physico-chemical characteristics of salt candidates: solubility in water, pH of aqueous suspension/solution, form post water maturation; conditions: listed as Ethane sulfonic
Description: The physico-chemical characteristics of the salt candidates were determined.

[2] = Primary particle size analysis by laser light diffraction (Mastersizer 2000); assay type: physicochemical; conditions: micronised, mean n=3
Description: A Mastersizer 2000 fitted with a Scirocco 2000 dry powder dispersion unit (Malvern Instruments Ltd, UK) was used to analyse the primary particle size of the micronised RPL554 and salt variants. The salts (50 mg) were automatically sampled via a vibrating feed control at a feeder rate of 60% and dispersed in compressed air at a pressure of 3 bar.

[3] = RPL554 content and content uniformity of 1% w/w lactose powder blends; assay type: physicochemical
Description: Batches (approximately 5 g) of 1% w/w RPL554 free base or salt variants: lactose blends were prepared. In brief, the RPL554 free base or salt plus a small quantity of lactose was passed through a 38 μm sieve. The sieved material plus the remaining lactose was mixed in a glass mortar prior to transfer to a stainless steel screw cap jar and further mixing (10 minutes at 46 rpm) conducted using a Turbula blender. The composition of the dry powder blend was 0.05 g API and 4.95 g lactose.
In order to determine the content uniformity of the blends, aliquots (approx. 20 mg) of powder were sampled from each blend, accurately weighed, and diluted to volume in 10 mL volumetric flasks with diluent. The flasks were sonicated for 3 minutes before samples were transferred to HPLC vials for analysis.

[4] = Solubility of RPL554 and salts in pMDI propellant systems; assay type: physicochemical
Description: Quantitative assessment of the solubility of RPL554 and salt variants in the propellant systems of selected pMDI formulations (three replicates of each formulation) was performed. pMDIs were directly coupled to an adaptor fitted with a 0.20 μm filter unit connected, in series to a 21 G needle, which was inserted via a rubber septum, into a cooled multi-dose glass vial. A 19 G filter needle was inserted through the septum to aid evaporation of propellant from the vial. Prior to the filtration process the vial was cooled in a mixture of dry ice and acetone to ensure that the pressure within the vial was reduced in order to facilitate collection of the output from the pMDI. Ten consecutive actuations of the pMDI were fired through the filter and collected in the vial. Between actuations the canister was shaken for approximately 10 seconds. The pMDI unit was weighed before and after the filtering procedure. The filtrate was stored at room temperature and allowed to evaporate to dryness.
Samples were recovered by carefully rinsing the inside of the vials with 1 mL of recovery solution before transfer to HPLC vials for analysis. The estimated % of RPL554 solubilised within the canister was calculated from the starting mass of RPL554 within the canisters, which in turn was calculated using the theoretical molecular weight values of the RPL554 free base and salt variants shown in Table 13. The theoretical molecular weight estimates of the salts were provided by Verona.

[5] = Solubility of RPL554 salts in saline solutions, water and aqueous buffer solutions at 25° C. (HPLC); assay type: physicochemical; conditions: 24 hours
Description: The behaviour of salts of RPL554 were examined under the following conditions: • Phosphate buffered to pH 3.5 in saline, 0.9% w/w at 25° C. • Acetate buffered to pH 4.5 in saline, 0.9% w/w at 25° C. • Citro-Phosphate buffered to pH 4.5 in saline, 0.9% w/w at 25° C. • Phosphate buffered to pH 6.5 in saline, 0.9% w/w at 25° C. • Saline, 0.7, 0.9 and 1.1% w/w at 25° C. • Deionised water at 25° C.
RPL554 salts and RPL554, ca 50 mg, were suspended in the various aqueous media, 1 ml, with agitation at the specified temperatures for 24 hours. The solids were isolated and dried in vacuo at 45° C. The retained filtrates were examined by HPLC.
Additional RPL554 methane sulfonate salt, ca 50 mg, was charged to the water mixtures at 25° C. and 37.5° C. in order to afford a suspension. In all other cases, suspensions were obtained.
The solubility of the RPL554 was determined by HPLC using a single point calibration and is expressed as RPL554 and not as the salt and are detailed in Table 6 and Table 7 for the various conditions utilised.

[6] = Intrinsic dissolution of compressed tablet, pH 7.0, 37° C. (Sirius inForm); assay type: physicochemical; conditions: for mass dissolved: initial peak
Description: The dissolution assay (pH-dependent sample dissolution) was investigated using the Sirius inForm.
Dissolution of a compressed tablet of the compound was monitored in a pH 7.0 aqueous dissolution experiment (0.15 M NaCl) at 37° C. using UV-absorption spectroscopy in 2 hour experiments. A tablet with a diameter of 3 mm, requiring approximate weights of 10 mg was compressed under a weight of 100 kg load force. Only one face of the tablet was exposed to the dissolution medium, which contained a 0.01 M acetate/phosphate buffer system to minimise perturbation of the experimental pH from dissolution of the drug.
Stirring of the solution was continuous and at a constant rate of 100 rpm. The absorption data was converted to absolute sample weights using previously determined, pH-dependent, molar extinction coefficients. An appropriate wavelength range was chosen to ensure that spectroscopic data with an absorption value of <1.3 was analysed, avoiding erroneous dissolution results due to saturation of the UV light source.

[7] = Aerosol performance of DPI formulations (Cyclohaler, NGI); assay type: physicochemical
Description: Capsules were hand filled with 20 mg of the 1% w/w RPL554 free base or salt variants: lactose blends, i.e. 200 μg salt per capsule, the fill weight of each capsule was recorded. Due to differences in the molecular weights of the RPL554 salt forms, the amount of RPL554 emitted per actuation varied as a function of molecular weight. The formulations were prepared with no adjustment for differences in molecular weight of the salts.
The powders were delivered via the Cyclohaler® DPI (PCH Pharmachemie, BV, The Netherlands). The Cyclohaler® DPI is a low resistance device and was operated at a flow rate of 90 L/min for 2.7 seconds. The cut off diameters for the NGI collection stages were calculated for the 90 L/min flow rate using the NGI User Guide (MSP Corporation, 2008).
The ED, FPD and FPF were determined from inertial impaction tests performed following the deposition of 5 capsules of each formulation into the NGI. For each capsule tested the combined weight of the Cyclohaler® and capsule was determined before and after operation to check that the dose had been delivered. The NGI was fitted with a pre-separator for these determinations. The central cup of the pre-separator was filled with 15 mL of diluent. Following deposition, the solution was recovered in a 20 mL volumetric flask and made up to volume with diluent. RPL554 was quantitatively recovered from the device, induction port and each of the NGI collection stages with 10 mL of diluent.
The volume of diluent used for each sample was selected to ensure RPL554 concentrations were above the limit of quantitation.

[8] = pH 7.0, 0.15 M NaCl, 37° C., listed as ethanesulfonate salt

Question: For `COc1cc2c(cc1OC)-c1c/c(=N\c3c(C)cc(C)cc3C)n(CCNC(N)=O)c(=O)n1CC2` [Ethanesulfonate, RPL554 ethanesulfonate], which “pH of aqueous suspension/solution” value [1] is on record?
Answer: 3.04

Question: What about the “D (0.1) (μm)” value [2] of the same compound?
Answer: 0.56 μm

Question: And the “D (0.5) (μm)” value [2]?
Answer: 1.43 μm

Question: What about the “D (0.9) (μm)” value [2] of the same compound?
Answer: 4.18 μm

Question: And the “Measured Blend Content (% Theoretical)” value ([3]; 1% w/w RPL554 variant: lactose powder blend, expressed as RPL554 base)?
Answer: 98.79 % Theoretical

Question: What about the “**Adjusted RPL554 Content per capsule” value ([3]; per 20 mg capsule of 1% w/w lactose blend, adjusted for measured blend content (% theoretical), as RPL554 base) of the same compound?
Answer: 160.55 µg

Question: And the “Calculated RPL554 solubilised (%)” value ([4]; in HFA 134)?
Answer: 5.56%

Question: And the “Calculated Solubilised RPL554 μg per 50 μL actuation” value ([4]; in HFA 134)?
Answer: 9.03 µg

Question: And the “Solubility RPL554” value ([4]; in HFA 134, BLQ = below limit of quantitation (0.06 μg/mL))?
Answer: 126.81 µg/g

Question: And the “Solubility RPL554 (μg/g)” value ([4]; in HFA 134, BLQ = below limit of quantitation (0.06 μg/mL), listed as ethanesulfonate)?
Answer: quantifiable levels of solubility

Question: What about the “Estimated RPL554 solubilised (%)” value ([4]; in HFA 134 with Ethanol/Tween) of the same compound?
Answer: 10.96%

Question: What about the “Estimated Solubilised RPL554 μg per 50 μL actuation” value ([4]; in HFA 134 with Ethanol/Tween) of the same compound?
Answer: 17.81 µg

Question: What about the “Solubility RPL554” value ([4]; in HFA 134 with Ethanol/Tween) of the same compound?
Answer: 266.59 µg/g

Question: And the “Calculated RPL554 solubilised (%)” value ([4]; in HFA 227)?
Answer: BLQ

Question: And the “Calculated Solubilised RPL554 μg per 50 μL actuation” value ([4]; in HFA 227)?
Answer: BLQ

Question: And the “Solubility RPL554 (μg/g)” value ([4]; in HFA 227)?
Answer: BLQ

Question: What about the “Solubility as RPL554 (mg/ml) in 0.7 w/w % Saline” value [5] of the same compound?
Answer: 1.62 mg/mL

Question: What about the “Solubility as RPL554 (mg/ml) in 0.9 w/w % Saline” value [5] of the same compound?
Answer: 0.79 mg/mL

Question: And the “Solubility as RPL554 (mg/ml) in 1.1 w/w % Saline” value [5]?
Answer: 1.27 mg/mL

Question: What about the “Solubility as RPL554 (mg/ml) in Water” value ([5]; deionised water) of the same compound?
Answer: 21.37 mg/mL

Question: And the “dissolution compared with free base / other salts” value ([6]; 2 hour experiments)?
Answer: higher dissolution than the rest of the salts

Question: And the mass dissolved ([6]; at 5.7 min)?
Answer: 600 µg

Question: What about the mass dissolved ([6]; at 13 min) of the same compound?
Answer: 700 µg

Question: What about the “Mass of salt (μg) dissolved after 2 hours, Average” value [6, 8] of the same compound?
Answer: 355 µg

Question: And the “Mass of salt (μg) dissolved after 2 hours, Test 1” value [6, 8]?
Answer: 300 µg

Question: And the “Mass of salt (μg) dissolved after 2 hours, Test 2” value [6, 8]?
Answer: 410 µg

Question: And the “†Measured Mass of 1% w/w Blend Delivered per capsule” value ([7]; Cyclohaler, 5 capsules containing 20 mg powder blend, mass from weight change of capsule-loaded device)?
Answer: 20.18 mg

Question: What about the “††RPL554 Emitted (μg) per capsule (B)” value ([7]; Cyclohaler, NGI, mass determined from HPLC analysis of recovered samples, as RPL554 base) of the same compound?
Answer: 111.09 µg

Question: And the “Calculated RPL554 Content (μg) per capsule (A)” value ([7]; calculated from delivered blend mass and measured blend content, as RPL554 base)?
Answer: 162.00 µg
